From patent US11518760B2 (Liverpool School of Tropical Medicine, priority 2017, dated 2022)

What follows are compounds tested on C6/36 Aedes albopictus cell line infected with Wolbachia pipientis (Wolbachia strain wAlbB) (assay: In vitro insect cell line assay (anti-Wolbachia screen, SYTO 11 high content imaging)). Details: 168 h; C6/36 Aedes albopictus cells infected with Wolbachia pipientis wAlbB, 7 days incubation, SYTO 11 imaging; read-out: In vitro anti-Wolbachia activity.
Type: cell-based
Experimental: A C6/36 Aedes albopictus cell line infected with Wolbachia pipientis (Wolbachia strain wAlbB) derived from Aa23 A. albopictus cell line (O'Neill et al., 1997; Insect Mol Biol; Turner et al., (2006) J. Immunol. 7:1240-1249) was used to screen compounds. Cells were cultured in Leibovitz's L15+L-glutamine supplemented with heat-inactivated Foetal Calf Serum (HI-FCS), non-essential amino acids and tryptose phosphate broth. Culture medium was filter-sterilized through a 0.2 μm filter and stored at 4° C. Compounds were provided as 10 mM stocks in DMSO, diluted to 50 μM working stock to give final concentration of 5 μM on the test plate. Concentrated stocks were frozen at −20° C.
Prior to use in the screening assay, cell cultures were sub-passaged (6 days prior) to provide ˜90% confluent cells on Day 0 of screening assay. On Day 0 (assay set-up), the medium was removed from the stock culture flask and replaced with fresh medium. The cells were detached by scraping and cell density was calculated using an automated cell counter. The cells were then diluted at working density and aliquoted at 90 μl to each well of a Cell Carrier 384 well plate (Perkin Elmer). Cell plates were incubated at 26° C.
Control solution (DMSO-medium) was dispensed at 10 μl per well for “untreated” wells. Test solution (Drug-DMSO) was also dispensed at 10 μl (from working plate) per well for “treated” wells. The plates were incubated at 26° C., inside plastic wallet in incubator, for 7 days.
On Day 7, 25 μl of staining medium/dye (SYTO 11, Life Technologies) was added to each sample well and allowed to stain for 15 minutes in the dark. All the medium was removed from each sample well without disturbing the cells and replaced with 100 μl of fresh medium. Plates were imaged on the Operetta High Content Imaging system (Perkin Elmer) and analyzed using texture analysis through Harmony software (Perkin Elmer). The cell-based screen and analysis are described in detail in Clare et al. (2014) J Biomol Screen.

| Structure (SMILES) | EC50 |
| --- | --- |
| FC(F)(F)c1ncccc1C1CCN1c1nc(N2CC(C(F)(F)F)C2)nc2ncccc12 (stereo not drawn) [Example 221, 2-(3-(trifluoromethyl)azetidin-1-yl)-4-(2-(2-(trifluoromethyl)pyridin-3-yl)azetidin-1-yl)pyrido[2,3-d]pyrimidine] | 1 to 10 nM |
| CN(C)CCNc1nc(NCc2ccccc2C(F)(F)F)c2sccc2n1 [Example 89, N^2-(2-(dimethylamino)ethyl)-N^4-(2-(trifluoromethyl)benzyl)thieno[3,2-d]pyrimidine-2,4-diamine] | 1000 to 100000 nM |
| FC(F)(F)c1ccncc1CNc1ncnc2ccsc12 [Example 82] | 1000 to 100000 nM |
| C[C@@H]1[C@@H](C)OCCN1c1nc(NCc2cccnc2C(F)(F)F)c2cccnc2n1 [Example 270, 2-((2R,3R)-2,3-dimethylmorpholino)-N-((2-(trifluoromethyl)pyridin-3-yl)methyl)pyrido[2,3-d]pyrimidin-4-amine] | 1 to 10 nM |
| FC(F)(F)c1ccccc1CNc1ncnc2ccsc12 [Example 23, N-(2-(trifluoromethyl)benzyl)thieno[3,2-d]pyrimidin-4-amine] | 10 to 100 nM |
| FC(F)(F)c1ncccc1CNc1nc(N2CCOCC2C2CC2)nc2ncccc12 (stereo not drawn) [Example 253, 2-(3-cyclopropylmorpholino)-N-((2-(trifluoromethyl)pyridin-3-yl)methyl)pyrido[2,3-d]pyrimidin-4-amine] | 1 to 10 nM |
| COc1cnc2nc(N3CCOCC3C)nc(NCc3cccnc3C(F)(F)F)c2c1 (stereo not drawn) [Example 304] | 1000 to 100000 nM |
| COc1cccc(CNc2ncnc3ccsc23)c1C(F)(F)F [Example 51, N-(3-methoxy-2-(trifluoromethyl)benzyl)thieno[3,2-d]pyrimidin-4-amine] | 10 to 100 nM |
| CC(C)N(C)c1nc(N2CCCCC2c2ccccc2C(F)(F)F)c2cccnc2n1 (stereo not drawn) [Example 186, N-isopropyl-N-methyl-4-(2-(2-(trifluoromethyl)phenyl)piperidin-1-yl)pyrido[2,3-d]pyrimidin-2-amine] | 1000 to 100000 nM |
| CC1CCN(c2nc(NCc3cccnc3C(F)(F)F)c3cccnc3n2)CC1 [Example 312, 2-(4-methylpiperidin-1-yl)-N-((2-(trifluoromethyl)pyridin-3-yl)methyl)pyrido[2,3-d]pyrimidin-4-amine] | 0.01 to 1 nM |
| CC(Nc1ncnc2cc(C3CC3)sc12)c1ccccc1C(F)(F)F (stereo not drawn) [Example 99, 6-cyclopropyl-N-(1-(2-(trifluoromethyl)phenyl)ethyl)thieno[3,2-d]pyrimidin-4-amine] | 1000 to 100000 nM |
| CC1COCCN1c1nc(NCc2cccnc2C(F)(F)F)c2nccnc2n1 (stereo not drawn) [Example 309, 2-(3-methylmorpholino)-N-((2-(trifluoromethyl)pyridin-3-yl)methyl)pteridin-4-amine] | 100 to 1000 nM |
| CC(C)Nc1nc(NCc2ccccc2)c2sccc2n1 [Example 12, N^4-benzyl-N^2-isopropylthieno[3,2-d]pyrimidine-2,4-diamine] | 1000 to 100000 nM |
| O=C(Nc1cccc(F)c1)Nc1nc(NCc2cccnc2C(F)(F)F)c2cccnc2n1 [Example 205, 1-(3-fluorophenyl)-3-(4-(((2-(trifluoromethyl)pyridin-3-yl)methyl)amino)pyrido[2,3-d]pyrimidin-2-yl)urea] | 10 to 100 nM |
| C[C@@H]1COCCN1c1nc(NCc2cccnc2C(F)(F)F)c2cccnc2n1 [Example 211, (R)-2-(3-methylmorpholino)-N-((2-(trifluoromethyl)pyridin-3-yl)methyl)pyrido[2,3-d]pyrimidin-4-amine] | 10 to 100 nM |
| CC1(C)CCN1c1nc(NCc2cccnc2C(F)(F)F)c2cccnc2n1 [Example 173, 2-(2,2-dimethylazetidin-1-yl)-N-((2-(trifluoromethyl)pyridin-3-yl)methyl)pyrido[2,3-d]pyrimidin-4-amine] | 1 to 10 nM |
| N#CC1CCCN(c2nc(NCc3ccccc3C(F)(F)F)c3cccnc3n2)C1 (stereo not drawn) [Example 262, 1-(4-((2-(trifluoromethyl)benzyl)amino)pyrido[2,3-d]pyrimidin-2-yl)piperidine-3-carbonitrile] | 0.01 to 1 nM |
| CN1CCN(CCNc2nc(NCc3ccccc3C(F)(F)F)c3sccc3n2)CC1 [Example 92, N^2-(2-(4-methyipiperazin-1-yl)ethyl)-N^4-(2-(trifluoromethyl)benzyl)thieno[3,2-d]pyrimidine-2,4-diamine] | 1000 to 100000 nM |

| Structure (SMILES) | EC50 |
| --- | --- |
| FC(F)(F)c1ncccc1CNc1nc(N2CCC(C(F)(F)F)C2)nc2ncccc12 (stereo not drawn) [Example 236, N-((2-(trifluoromethyl)pyridin-3-yl)methyl)-2-(3-(trifluoromethyl)pyrrolidin-1-yl)pyrido[2,3-d]pyrimidin-4-amine] | < 0.01 nM |
| FC(F)(F)c1ncccc1CNc1nc(N2CCCCC2C(F)(F)F)nc2ncccc12 (stereo not drawn) [Example 259, 2-(2-(trifluoromethyl)piperidin-1-yl)-N-((2-(trifluoromethyl)pyridin-3-yl)methyl)pyrido[2,3-d]pyrimidin-4-amine] | 0.01 to 1 nM |
| FC1(F)CCN(c2nc(NCc3cccnc3C(F)(F)F)c3cccnc3n2)CC1 [Example 197, 2-(4,4-difluoropiperidin-1-yl)-N-((2-(trifluoromethyl)pyridin-3-yl)methyl)pyrido[2,3-d]pyrimidin-4-amine] | 1 to 10 nM |
| CC(C)Nc1nc(N2CCC2c2ccccc2C(F)(F)F)c2cccnc2n1 (stereo not drawn) [Example 183, N-isopropyl-4-(2-(2-(trifluoromethyl)phenyl)azetidin-1-yl)pyrido[2,3-d]pyrimidin-2-amine] | 1 to 10 nM |
| FC(F)(F)c1ccccc1CNc1nc(N2CCOCC23CCC3)nc2ncccc12 [Example 285, 2-(8-oxa-5-azaspiro[3.5]nonan-5-yl)-N-(2-(trifluoromethyl)benzyl)pyrido[2,3-d]pyrimidin-4-amine] | 10 to 100 nM |
| CC1CN(c2nc(NCc3cccnc3C(F)(F)F)c3cccnc3n2)CCO1 (stereo not drawn) [Example 241, 2-(2-methylmorpholino)-N-((2-(trifluoromethyl)pyridin-3-yl)methyl)pyrido[2,3-d]pyrimidin-4-amine] | 0.01 to 1 nM |
| N#CC1CN(c2nc(NCc3cccnc3C(F)(F)F)c3cccnc3n2)CCO1 (stereo not drawn) [Example 257, 4-(4-(((2-(trifluoromethyl)pyridin-3-yl)methyl)amino)pyrido[2,3-d]pyrimidin-2-yl)morpholine-2-carbonitrile] | 10 to 100 nM |
| CC(Nc1nc(Cl)nc2ccsc12)c1ccccc1C(F)(F)F (stereo not drawn) [Example 52, 2-chloro-N-(1-(2-(trifluoromethyl)phenyl)ethyl)thieno[3,2-d]pyrimidin-4-amine] | 10 to 100 nM |
| CC(C)Nc1nc(NC2(c3ccccc3Cl)CC2)c2sccc2n1 [Example 48, N^4-(1-(2-chlorophenyl)cyclopropyl)-N^2-isopropylthieno[3,2-d]pyrimidine-2,4-diamine] | 100 to 1000 nM |
| FC1(F)CC2(CCN(c3nc(NCc4ccccc4C(F)(F)F)c4cccnc4n3)CC2)C1 [Example 260, 2-(2,2-difluoro-7-azaspiro[3.5]nonan-7-yl)-N-(2-(trifluoromethyl)benzyl)pyrido[2,3-d]pyrimidin-4-amine] | 1 to 10 nM |
| CC(C)Nc1nc(NCc2ccc(C(F)(F)F)nc2)c2sccc2n1 [Example 119, N^2-isopropyl-N^4-((6-(trifluoromethyl)pyridin-3-yl)methyl)thieno[3,2-d]pyrimidine-2,4-diamine] | 100 to 1000 nM |
| CC(O)c1nc(NCc2ccccc2C(F)(F)F)c2sccc2n1 (stereo not drawn) [Example 84] | 1000 to 100000 nM |
| CC1CCN1c1nc(NCc2cccnc2C(F)(F)F)c2cccnc2n1 (stereo not drawn) [Example 172, 2-(2-methylazetidin-1-yl)-N-((2-(trifluoromethyl)pyridin-3-yl)methyl)pyrido[2,3-d]pyrimidin-4-amine] | 0.01 to 1 nM |
| CC1(C)CCN(c2nc(NCc3ccccc3C(F)(F)F)c3cccnc3n2)CC1 [Example 244, 2-(4,4-dimethylpiperidin-1-yl)-N-(2-(trifluoromethyl)benzyl)pyndo[2,3-d]pyrimidin-4-amine] | 1 to 10 nM |
| FC(F)(F)c1ncccc1CNc1nc(N2CCC(Cl)C2)nc2ncccc12 (stereo not drawn) [Example 265, 2-(3-chloropyrrolidin-1-yl)-N-((2-(trifluoromethyl)pyridin-3-yl)methyl)pyrido[2,3-d]pyrimidin-4-amine] | < 0.01 nM |
| N#CC1CN(c2nc(NCc3ccccc3C(F)(F)F)c3cccnc3n2)C1 [Example 245, 1-(4-((2-(trifluoromethyl)benzyl)amino)pyrido[2,3-d]pyrimidin-2-yl)azetidine-3-carbonitrile] | 1 to 10 nM |
| FC(F)(F)c1ccccc1CNc1nc(N2CCCC2)nc2ccsc12 [Example 93, 2-(pyrrolidin-1-yl)-N-(2-(trifluoromethyl)benzyl)thieno[3,2-d]pyrimidin-4-amine] | 100 to 1000 nM |
| FC(F)(F)c1ncccc1CNc1nc(NC2CC2)nc2ncccc12 [Example 159, N^2-cyclopropyl-N^4-((2-(trifluoromethyl)pyridin-3-yl)methyl)pyrido[2,3-d]pyrimidine-2,4-diamine] | 1 to 10 nM |
